Earlier results in patent publication US10688070B2, “Serine glycerophospholipid preparation and method for treatment of seizures” (ENZYMOTEC LTD., priority 2013, dated 2020).

Tested on: Valproate adverse events (hepatotoxicity)
Details: in vivo

**Q.** Which “Effect on adverse events of Valproate” value does the source give for `CC/C=C\C/C=C\C/C=C\C/C=C\C/C=C\CCCC(=O)O` [EPA, Eicosapentanoic acid] here?
**A.** The value was “did not reveal the same effect”.
